ChEMBL document CHEMBL1201862, “PubChem BioAssay data set” (2004)
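Cultured in 96-well plates, cells were exposed to test compound for 48 hours across five concentrations. GI50 is the concentration that inhibits growth by half.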 Calls of active or inactive are those of the source. Rule as the data show it: active = GI50 up to about 1.1 µM and inactive = higher.

Experiments:
Experiment in all cases: DTP human tumour cell line panel, 48 h
KM12 = test system: KM12
HOP-18 = test system: HOP-18
NCI-H226 = test system: NCI-H226
SF-268 = test system: SF-268
SR = test system: SR
XF498 = test system: XF498
CCRF-CEM = test system: CCRF-CEM
COLO 205 = test system: COLO 205
HOP-62 = test system: HOP-62
NCI-H23 = test system: NCI-H23
ACHN = test system: ACHN
HT-29 = test system: HT-29
NCI-H522 = test system: NCI-H522
OVCAR-8 = test system: OVCAR-8
CAKI-1 = test system: CAKI-1
HL-60 = test system: HL-60
U-251 = test system: U-251
HCC 2998 = test system: HCC 2998
LXFL 529 = test system: LXFL 529
SNB-75 = test system: SNB-75
DLD-1 = test system: DLD-1
DMS-114 = test system: DMS-114
OVCAR-3 = test system: OVCAR-3
SK-MEL-5 = test system: SK-MEL-5
SW-620 = test system: SW-620
UACC-257 = test system: UACC-257
M14 = test system: M14
OVCAR-5 = test system: OVCAR-5
LOX IMVI = test system: LOX IMVI
EKVX = test system: EKVX
RXF 393 = test system: RXF 393
RXF 631 = test system: RXF 631
HOP-92 = test system: HOP-92
UO-31 = test system: UO-31
SF-295 = test system: SF-295
SNB-19 = test system: SNB-19
M19-MEL = test system: M19-MEL
SF-539 = test system: SF-539
KM-20L2 = test system: KM-20L2
A549 = test system: A549
HCT-116 = test system: HCT-116
SN12C = test system: SN12C
OVCAR-4 = test system: OVCAR-4
SNB-78 = test system: SNB-78
Malme-3M = test system: Malme-3M
NCI-H460 = test system: NCI-H460
SK-OV-3 = test system: SK-OV-3
TK-10 = test system: TK-10
HCT-15 = test system: HCT-15
IGROV-1 = test system: IGROV-1
UACC-62 = test system: UACC-62
SK-MEL-28 = test system: SK-MEL-28
A498 = test system: A498
786-0 = test system: 786-0
K562 = test system: K562
SK-MEL-2 = test system: SK-MEL-2
RPMI-8226 = test system: RPMI-8226
MOLT-4 = test system: MOLT-4
DMS-273 = test system: DMS-273

For CCOC(=O)C(/C(=N/NC(=O)OC)C(=O)Nc1ccc(C(C)=O)cc1)c1cnc2ccccc2n1 (stereo not given), the GI50 (KM12) was > 100 µM (inactive), the GI50 (HOP-18) was > 100 µM (inactive) and the GI50 (NCI-H226) was > 100 µM (inactive). The GI50 (SF-268) was > 100 µM (inactive), the GI50 (SR) was > 100 µM (inactive) and the GI50 (XF498) was > 100 µM (inactive). For the same compound, the GI50 (CCRF-CEM) was > 100 µM (inactive), the GI50 (COLO 205) was > 100 µM (inactive) and the GI50 (HOP-62) was > 100 µM (inactive). The GI50 (NCI-H23) was > 100 µM (inactive), the GI50 (ACHN) was > 100 µM (inactive) and the GI50 (HT-29) was > 100 µM (inactive). For the same compound, the GI50 (NCI-H522) was > 100 µM (inactive), the GI50 (OVCAR-8) was > 100 µM (inactive) and the GI50 (CAKI-1) was > 100 µM (inactive). For the same compound, the GI50 (HL-60) was > 100 µM (inactive), the GI50 (U-251) was > 100 µM (inactive) and the GI50 (HCC 2998) was > 100 µM (inactive). The GI50 (LXFL 529) was > 100 µM (inactive), the GI50 (SNB-75) was 90.8 µM (inactive) and the GI50 (DLD-1) was > 100 µM (inactive). The GI50 (DMS-114) was > 100 µM (inactive), the GI50 (OVCAR-3) was > 100 µM (inactive) and the GI50 (SK-MEL-5) was > 100 µM (inactive). The GI50 (SW-620) was > 100 µM (inactive), the GI50 (UACC-257) was > 100 µM (inactive) and the GI50 (M14) was > 100 µM (inactive). For the same compound, the GI50 (OVCAR-5) was > 100 µM (inactive), the GI50 (LOX IMVI) was > 100 µM (inactive) and the GI50 (EKVX) was > 100 µM (inactive). For the same compound, the GI50 (RXF 393) was > 100 µM (inactive), the GI50 (RXF 631) was > 100 µM (inactive) and the GI50 (HOP-92) was > 100 µM (inactive). For the same compound, the GI50 (UO-31) was > 100 µM (inactive), the GI50 (SF-295) was > 100 µM (inactive) and the GI50 (SNB-19) was > 100 µM (inactive). For the same compound, the GI50 (M19-MEL) was > 100 µM (inactive), the GI50 (SF-539) was > 100 µM (inactive) and the GI50 (KM-20L2) was > 100 µM (inactive). For the same compound, the GI50 (A549) was > 100 µM (inactive), the GI50 (HCT-116) was > 100 µM (inactive) and the GI50 (SN12C) was > 100 µM (inactive). For the same compound, the GI50 (OVCAR-4) was > 100 µM (inactive), the GI50 (SNB-78) was > 100 µM (inactive) and the GI50 (Malme-3M) was > 100 µM (inactive). The GI50 (NCI-H460) was > 100 µM (inactive), the GI50 (SK-OV-3) was > 100 µM (inactive) and the GI50 (TK-10) was > 100 µM (inactive). For the same compound, the GI50 (HCT-15) was over 100 µM, the GI50 (IGROV-1) was > 100 µM (inactive) and the GI50 (UACC-62) was > 100 µM (inactive). The GI50 (SK-MEL-28) was > 100 µM (inactive), the GI50 (A498) was > 100 µM (inactive) and the GI50 (786-0) was > 100 µM (inactive). The GI50 (K562) was > 100 µM (inactive).
For CCSc1c2ccccc2c(-c2nc(F)nc(F)n2)n1CCc1ccccc1, the GI50 (KM12) was > 100 µM (inactive), the GI50 (NCI-H226) was > 100 µM (inactive) and the GI50 (SK-MEL-2) was > 100 µM (inactive). For the same compound, the GI50 (SF-268) was > 100 µM (inactive), the GI50 (SR) was 51.3 µM (inactive) and the GI50 (XF498) was > 100 µM (inactive). For the same compound, the GI50 (CCRF-CEM) was 36.2 µM (inactive), the GI50 (COLO 205) was > 100 µM (inactive) and the GI50 (HOP-62) was > 100 µM (inactive). The GI50 (NCI-H23) was > 100 µM (inactive), the GI50 (ACHN) was > 100 µM (inactive) and the GI50 (HT-29) was > 100 µM (inactive). For the same compound, the GI50 (NCI-H522) was > 100 µM (inactive), the GI50 (CAKI-1) was > 100 µM (inactive) and the GI50 (HL-60) was > 100 µM (inactive). For the same compound, the GI50 (U-251) was > 100 µM (inactive), the GI50 (HCC 2998) was > 100 µM (inactive) and the GI50 (LXFL 529) was > 100 µM (inactive). For the same compound, the GI50 (DMS-114) was > 100 µM (inactive), the GI50 (OVCAR-3) was > 100 µM (inactive) and the GI50 (SW-620) was > 100 µM (inactive). For the same compound, the GI50 (M14) was > 100 µM (inactive), the GI50 (OVCAR-5) was > 100 µM (inactive) and the GI50 (LOX IMVI) was > 100 µM (inactive). The GI50 (EKVX) was > 100 µM (inactive), the GI50 (RXF 393) was > 100 µM (inactive) and the GI50 (RXF 631) was > 100 µM (inactive). The GI50 (HOP-92) was > 100 µM (inactive), the GI50 (UO-31) was > 100 µM (inactive) and the GI50 (RPMI-8226) was > 100 µM (inactive). For the same compound, the GI50 (SF-295) was > 100 µM (inactive), the GI50 (SNB-19) was > 100 µM (inactive) and the GI50 (M19-MEL) was > 100 µM (inactive). For the same compound, the GI50 (SF-539) was > 100 µM (inactive), the GI50 (KM-20L2) was > 100 µM (inactive) and the GI50 (A549) was > 100 µM (inactive). For the same compound, the GI50 (HCT-116) was > 100 µM (inactive), the GI50 (MOLT-4) was 56.4 µM (inactive) and the GI50 (SN12C) was > 100 µM (inactive). For the same compound, the GI50 (OVCAR-4) was > 100 µM (inactive), the GI50 (SNB-78) was > 100 µM (inactive) and the GI50 (Malme-3M) was > 100 µM (inactive). The GI50 (NCI-H460) was > 100 µM (inactive), the GI50 (TK-10) was > 100 µM (inactive) and the GI50 (HCT-15) was over 100 µM. For the same compound, the GI50 (DMS-273) was > 100 µM (inactive), the GI50 (SK-MEL-28) was > 100 µM (inactive) and the GI50 (A498) was 86.5 µM (inactive). The GI50 (786-0) was > 100 µM (inactive) and the GI50 (K562) was > 100 µM (inactive).
COC(=O)C(=O)C(CC(=O)Nc1ccc(C)cc1)C(=O)OC (stereo not given) was tested, and the GI50 (KM12) was > 100 µM (inactive), the GI50 (HOP-18) was > 100 µM (inactive) and the GI50 (NCI-H226) was > 100 µM (inactive). For the same compound, the GI50 (SK-MEL-2) was > 100 µM (inactive), the GI50 (SF-268) was > 100 µM (inactive) and the GI50 (SR) was > 100 µM (inactive). The GI50 (XF498) was > 100 µM (inactive), the GI50 (CCRF-CEM) was > 100 µM (inactive) and the GI50 (HOP-62) was > 100 µM (inactive). For the same compound, the GI50 (NCI-H23) was > 100 µM (inactive), the GI50 (ACHN) was > 100 µM (inactive) and the GI50 (HT-29) was > 100 µM (inactive). For the same compound, the GI50 (NCI-H522) was > 100 µM (inactive), the GI50 (OVCAR-8) was > 100 µM (inactive) and the GI50 (CAKI-1) was > 100 µM (inactive). The GI50 (HL-60) was > 100 µM (inactive), the GI50 (U-251) was > 100 µM (inactive) and the GI50 (HCC 2998) was > 100 µM (inactive). The GI50 (LXFL 529) was > 100 µM (inactive), the GI50 (DLD-1) was > 100 µM (inactive) and the GI50 (DMS-114) was > 100 µM (inactive). For the same compound, the GI50 (OVCAR-3) was > 100 µM (inactive), the GI50 (SK-MEL-5) was > 100 µM (inactive) and the GI50 (SW-620) was > 100 µM (inactive). The GI50 (UACC-257) was > 100 µM (inactive), the GI50 (M14) was > 100 µM (inactive) and the GI50 (OVCAR-5) was > 100 µM (inactive). For the same compound, the GI50 (LOX IMVI) was > 100 µM (inactive), the GI50 (EKVX) was > 100 µM (inactive) and the GI50 (RXF 393) was > 100 µM (inactive). The GI50 (RXF 631) was > 100 µM (inactive), the GI50 (HOP-92) was > 100 µM (inactive) and the GI50 (UO-31) was > 100 µM (inactive). For the same compound, the GI50 (RPMI-8226) was > 100 µM (inactive), the GI50 (SF-295) was > 100 µM (inactive) and the GI50 (SNB-19) was > 100 µM (inactive). For the same compound, the GI50 (M19-MEL) was > 100 µM (inactive), the GI50 (SF-539) was > 100 µM (inactive) and the GI50 (KM-20L2) was > 100 µM (inactive). For the same compound, the GI50 (A549) was > 100 µM (inactive), the GI50 (HCT-116) was > 100 µM (inactive) and the GI50 (MOLT-4) was > 100 µM (inactive). The GI50 (SN12C) was > 100 µM (inactive), the GI50 (OVCAR-4) was > 100 µM (inactive) and the GI50 (SNB-78) was > 100 µM (inactive). For the same compound, the GI50 (Malme-3M) was > 100 µM (inactive), the GI50 (NCI-H460) was > 100 µM (inactive) and the GI50 (SK-OV-3) was > 100 µM (inactive). For the same compound, the GI50 (TK-10) was > 100 µM (inactive), the GI50 (HCT-15) was over 100 µM and the GI50 (IGROV-1) was > 100 µM (inactive). For the same compound, the GI50 (UACC-62) was > 100 µM (inactive), the GI50 (SK-MEL-28) was > 100 µM (inactive) and the GI50 (786-0) was > 100 µM (inactive). For the same compound, the GI50 (K562) was > 100 µM (inactive).
